Measured values published in ChEMBL document CHEMBL2401677, “2-Aminothiazole based P2Y(1) antagonists as novel antiplatelet agents” (Bioorg Med Chem Lett, 2013).

Legend:
[1] = Antiplatelet activity in human platelet rich plasma assessed as inhibition of ADP-induced platelet aggregation; assay type: functional
[2] = Antiplatelet activity in human platelet rich plasma assessed as inhibition of ADP-induced platelet aggregation at 10 uM relative to control; assay type: functional
P2Y purinoceptor 1 = P2Y purinoceptor 1 (Homo sapiens, UniProt P47900); experiment: Displacement of [beta-33P]-2MeS-ADP from human P2Y1 receptor expressed in HEK293 cells after 1 hr by scintillation counting analysis; assay type: cell-based
[3] = Clearance in rat at 5 mg/kg, iv; assay type: ADME, organism-based; design: dose 5 mg/kg, route intravenous; settings: in vivo
[4] = Oral bioavailability in rat; assay type: ADME, organism-based; settings: in vivo
[5] = Protein binding in human serum; assay type: ADME, cell-free; settings: read-out: PB

Chain of P2Y purinoceptor 1 (P47900 whole entry): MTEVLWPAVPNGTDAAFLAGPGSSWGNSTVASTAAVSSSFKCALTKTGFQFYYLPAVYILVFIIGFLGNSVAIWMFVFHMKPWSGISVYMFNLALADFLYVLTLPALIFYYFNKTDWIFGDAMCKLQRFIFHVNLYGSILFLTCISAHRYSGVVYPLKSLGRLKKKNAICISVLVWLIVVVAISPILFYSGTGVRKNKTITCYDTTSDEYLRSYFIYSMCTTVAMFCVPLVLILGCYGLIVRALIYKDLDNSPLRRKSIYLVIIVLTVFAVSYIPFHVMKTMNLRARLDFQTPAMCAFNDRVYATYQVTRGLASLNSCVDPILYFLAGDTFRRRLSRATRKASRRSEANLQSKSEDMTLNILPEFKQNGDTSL

SMILES | IC50 [1] [nM] | inhibition at 10 µM [2] [%] | Ki (P2Y purinoceptor 1) [nM] | clearance [3] [mL/min/kg] | bioavailability [4] [%] | fraction unbound [5]
CC(C)(C)c1ccccc1Oc1ncccc1Nc1nc(C(F)(F)F)c(-c2ccccc2)s1 | 12000 | 61 | 7 |  |  | 
CC(C)(C)c1ccccc1Oc1ncccc1Nc1nc(C(F)(F)F)c(-c2ccccc2O)s1 |  | 99 | 435 |  |  | 
CCOC(=O)c1sc(Nc2cccnc2Oc2ccccc2C(C)(C)C)nc1C(F)(F)F |  | 50 | 5 |  |  | 
CC(C)(C)c1ccccc1Oc1ncccc1Nc1nc(C(F)(F)F)c(C(N)=O)s1 |  |  | 4850 |  |  | 
Cc1ccc(-c2sc(Nc3cccnc3Oc3ccccc3C(C)(C)C)nc2C(F)(F)F)cc1 |  | 32 | 8 |  |  | 
COc1cccc(-c2sc(Nc3cccnc3Oc3ccccc3C(C)(C)C)nc2C(F)(F)F)c1 |  | 41 | 8 |  |  | 
Cc1ccccc1-c1sc(Nc2cccnc2Oc2ccccc2C(C)(C)C)nc1C(F)(F)F |  | 54 | 11 |  |  | 
CC(C)(C)c1ccccc1Oc1ncccc1Nc1ncc(-c2ccccc2)s1 |  | 87 |  |  |  | 
CN(C)CC(C)(C)COc1cccc(-c2sc(Nc3cccnc3Oc3ccccc3C(C)(C)C)nc2C(F)(F)F)c1 | 5200 | 17 | 12 | 6.7 | 27 | 0.001
CC(C)(C)c1ccccc1Oc1ncccc1Nc1nc(C(F)(F)F)c(-c2ccc(C#N)cc2)s1 |  | 79 | 13 |  |  | 
CC(C)(C)c1ccccc1Oc1ncccc1Nc1nc(C(F)(F)F)c(-c2ccc(OC(F)(F)F)cc2)s1 |  | 85 | 12 |  |  | 
Cc1noc(-c2sc(Nc3cccnc3Oc3ccccc3C(C)(C)C)nc2C(F)(F)F)n1 |  | 56 | 6 |  |  | 
CN(C)C(=O)c1nc(Nc2cccnc2Oc2ccccc2C(C)(C)C)sc1-c1ccccc1 |  | 100 | 186 |  |  | 
Cc1sc(Nc2cccnc2Oc2ccccc2C(C)(C)C)nc1C(F)(F)F |  | 96 | 11 |  |  | 
CC(C)(C)c1ccccc1Oc1ncccc1Nc1nc(C(C)(C)C)c(-c2ccccc2)s1 |  | 86 | 31 |  |  | 
CC(C)(C)c1ccccc1Oc1ncccc1Nc1nc(C(F)(F)F)c(-c2cccc(O)c2)s1 |  | 98 | 195 |  |  | 
COc1ccc(-c2sc(Nc3cccnc3Oc3ccccc3C(C)(C)C)nc2C(F)(F)F)cc1 |  | 30 | 8 |  |  | 
CC(C)(C)c1ccccc1Oc1ncccc1Nc1nc(C(F)(F)F)c(-c2ccccc2F)s1 |  | 41 | 7 |  |  | 
CC(C)(C)c1ccccc1Oc1ncccc1Nc1nc(C(C)(C)CC(=O)O)c(-c2ccccc2)s1 |  | 89 | 207 |  |  | 
CC(C)(C)c1ccccc1Oc1ncccc1Nc1nc(C(F)(F)F)c(C#N)s1 |  | 101 | 21 |  |  | 
CCc1nc(Nc2cccnc2Oc2ccccc2C(C)(C)C)sc1-c1ccccc1 |  | 78 | 12 |  |  | 
